Data reported in patent US20230301300A1, “HERBICIDAL COMPOSITIONS” (SYNGENTA CROP PROTECTION AG, priority 2020, published 2023).

Key:
Type in all cases: in vivo
[1] = system: Amaranthus retoflexus (AMARE); assay: B1 Post-Emergence Efficacy - Test 1; conditions: 1000 g/ha, after 13 days, five point scale
Method: (§1) Seeds of a variety of test species are sown in standard soil in pots:— Solanum nigrum (SOLNI), Amaranthus retoflexus (AMARE), Setaria faberi (SETFA), Alopecurus myosuroides (ALOMY), Echinochloa crus-galli (ECHCG), Ipomoea hederacea (IPOHE), Lolium perenne (LOLPE). After 8 days cultivation (post-emergence) under controlled conditions in a glasshouse (at 24/16° C., day/night; 14 hours light; 65% humidity), the plants are sprayed with an aqueous spray solution derived from the formulation of the technical active ingredient in acetone/water (50:50) solution containing 0.5% Tween 20 (polyoxyethylene sorbitan monolaurate, CAS RN 9005-64-5). Compounds are applied at 1000 g/ha. The test plants are then grown in a glasshouse under controlled conditions in a glasshouse (at 24/16° C., day/night; 14 hours light; 65% humidity) and watered twice daily. After 13 days, the test is evaluated for the percentage damage caused to the plant. The biological activities are assessed on a five point scale (5=80-100%; 4=60-79%; 3=40-59%; 2=20-39%; 1=0-19%). A blank value in the table is indicative that the compound was not tested on that species.

[2] = system: Echinochloa crus-galli (ECHCG); assay: B1 Post-Emergence Efficacy - Test 1; conditions: 1000 g/ha, after 13 days, five point scale
Method: as §1

[3] = system: Ipomoea hederacea (IPOHE); assay: B1 Post-Emergence Efficacy - Test 1; conditions: 1000 g/ha, after 13 days, five point scale
Method: as §1

Lolium perenne (LOLPE) = assay: B1 Post-Emergence Efficacy - Test 1; conditions: 1000 g/ha, after 13 days, five point scale
Method: as §1

Setaria faberi (SETFA) = assay: B1 Post-Emergence Efficacy - Test 1; conditions: 1000 g/ha, after 13 days, five point scale
Method: as §1

Solanum nigrum (SOLNI) = assay: B1 Post-Emergence Efficacy - Test 1; conditions: 1000 g/ha, after 13 days, five point scale
Method: as §1

[4] = system: Amaranthus retroflexus (AMARE); assay: B2 Post-Emergence Efficacy - Test 2; conditions: 15 days after application, 0-100 scale
Method: (§2) Seeds of a variety of test species (see Table B1) were sown in standard soil in pots. After cultivation for 12 days (post-emergence) under controlled conditions in a glasshouse (at 24/18° C. or 20/16° C., at day/night; 16 hours light; 65% humidity), the plants were sprayed with an aqueous spray solution derived from the formulation of the technical active ingredient dissolved in IF50 (see Table B2 for composition) and adjuvant (Genapol X080) was added to the spray solution at a rate of 0.2% v/v.
(§3) After application, the test plants were grown in a glasshouse under controlled conditions (as above) and watered twice daily. Herbicidal activity was evaluated 15 days after application on a 0-100 scale. The results, where 0=no damage to test plant and 100=total kill of test plant are shown below in Tables 8 to 11.

Avena fatua (AVEFA) = assay: B2 Post-Emergence Efficacy - Test 2; conditions: 15 days after application, 0-100 scale
Method: as §2, §3

Beta vulgaris (BEAVA) = assay: B2 Post-Emergence Efficacy - Test 2; conditions: 15 days after application, 0-100 scale
Method: as §2, §3

Brassica napus (BRSNN) = assay: B2 Post-Emergence Efficacy - Test 2; conditions: 15 days after application, 0-100 scale
Method: as §2, §3

Glycine max (GLXMA) = assay: B2 Post-Emergence Efficacy - Test 2; conditions: 15 days after application; for Herbicidal activity GLXMA: 0-100 scale; for Herbicidal activity on a 0-100 scale, GLXMA: 0=no damage, 100=total kill
Method: as §2, §3

[5] = system: Ipomoea hederacea (IPOHE); assay: B2 Post-Emergence Efficacy - Test 2; conditions: 15 days after application, 0-100 scale
Method: as §2, §3

Kochia scoparia (KSHSC) = assay: B2 Post-Emergence Efficacy - Test 2; conditions: 15 days after application, 0-100 scale
Method: as §2, §3

Orysa sativa (ORYSA) = assay: B2 Post-Emergence Efficacy - Test 2; conditions: 15 days after application; for Herbicidal activity ORYSA: 0-100 scale; for Herbicidal activity on a 0-100 scale, ORYSA: 0=no damage, 100=total kill
Method: as §2, §3

Sida spinosa (SIDSP) = assay: B2 Post-Emergence Efficacy - Test 2; conditions: 15 days after application, 0-100 scale
Method: as §2, §3

Veronica persica (VERPE) = assay: B2 Post-Emergence Efficacy - Test 2; conditions: 15 days after application, 0-100 scale
Method: as §2, §3

[6] = system: Xanthium strumarium (XANST); assay: B2 Post-Emergence Efficacy - Test 2; conditions: 15 days after application, 0-100 scale
Method: as §2, §3

Structure (SMILES): Cc1nn(C)c(=O)c(-c2c(F)ccc(Cl)c2CCc2ccccc2C(F)(F)F)c1O [Compound 1.066, 4-[3-chloro-6-fluoro-2-[2-[2-(trifluoromethyl)phenyl]ethyl]phenyl]-5-hydroxy-2,6-dimethyl-pyridazin-3-one]
- percentage damage caused to the plant, AMARE [1]: 5 (5=80-100%)
- percentage damage caused to the plant, ECHCG [2]: 5 (5=80-100%)
- percentage damage caused to the plant, IPOHE [3]: 5 (5=80-100%)
- percentage damage caused to the plant, LOLPE (Lolium perenne (LOLPE)): 4 (4=60-79%)
- percentage damage caused to the plant, SETFA (Setaria faberi (SETFA)): 5 (5=80-100%)
- percentage damage caused to the plant, SOLNI (Solanum nigrum (SOLNI)): 5 (5=80-100%)
- Herbicidal activity AMARE ([4]; 15 g/Ha): 90
- Herbicidal activity AMARE ([4]; 30 g/Ha): 90
- Herbicidal activity AMARE ([4]; 60 g/Ha): 90
- Herbicidal activity AMARE ([4]; 125 g/Ha): 100
- Herbicidal activity AMARE ([4]; 250 g/Ha): 100
- Herbicidal activity AMARE ([4]; 500 g/Ha): 100
- Herbicidal activity AVEFA (Avena fatua (AVEFA); 15 g/Ha): 0
- Herbicidal activity AVEFA (Avena fatua (AVEFA); 30 g/Ha): 20
- Herbicidal activity AVEFA (Avena fatua (AVEFA); 60 g/Ha): 40
- Herbicidal activity AVEFA (Avena fatua (AVEFA); 125 g/Ha): 90
- Herbicidal activity AVEFA (Avena fatua (AVEFA); 250 g/Ha): 90
- Herbicidal activity AVEFA (Avena fatua (AVEFA); 500 g/Ha): 90
- Herbicidal activity BEAVA (Beta vulgaris (BEAVA); 15 g/Ha): 80
- Herbicidal activity BEAVA (Beta vulgaris (BEAVA); 30 g/Ha): 80
- Herbicidal activity BEAVA (Beta vulgaris (BEAVA); 60 g/Ha): 80
- Herbicidal activity BEAVA (Beta vulgaris (BEAVA); 125 g/Ha): 80
- Herbicidal activity BEAVA (Beta vulgaris (BEAVA); 250 g/Ha): 80
- Herbicidal activity BEAVA (Beta vulgaris (BEAVA); 500 g/Ha): 90
- Herbicidal activity BRSNN (Brassica napus (BRSNN); 15 g/Ha): 90
- Herbicidal activity BRSNN (Brassica napus (BRSNN); 30 g/Ha): 90
- Herbicidal activity BRSNN (Brassica napus (BRSNN); 60 g/Ha): 90
- Herbicidal activity BRSNN (Brassica napus (BRSNN); 125 g/Ha): 90
- Herbicidal activity BRSNN (Brassica napus (BRSNN); 250 g/Ha): 90
- Herbicidal activity BRSNN (Brassica napus (BRSNN); 500 g/Ha): 90
- Herbicidal activity GLXMA (Glycine max (GLXMA); 15 g/Ha): 20
- Herbicidal activity on a 0-100 scale, GLXMA (Glycine max (GLXMA); 15 g/Ha): 20
- Herbicidal activity GLXMA (Glycine max (GLXMA); 30 g/Ha): 40
- Herbicidal activity on a 0-100 scale, GLXMA (Glycine max (GLXMA); 30 g/Ha): 40
- Herbicidal activity GLXMA (Glycine max (GLXMA); 60 g/Ha): 70
- Herbicidal activity on a 0-100 scale, GLXMA (Glycine max (GLXMA); 60 g/Ha): 70
- Herbicidal activity GLXMA (Glycine max (GLXMA); 125 g/Ha): 70
- Herbicidal activity on a 0-100 scale, GLXMA (Glycine max (GLXMA); 125 g/Ha): 70
- Herbicidal activity GLXMA (Glycine max (GLXMA); 250 g/Ha): 90
- Herbicidal activity on a 0-100 scale, GLXMA (Glycine max (GLXMA); 250 g/Ha): 90
- Herbicidal activity GLXMA (Glycine max (GLXMA); 500 g/Ha): 90
- Herbicidal activity on a 0-100 scale, GLXMA (Glycine max (GLXMA); 500 g/Ha): 90
- Herbicidal activity IPOHE ([5]; 15 g/Ha): 70
- Herbicidal activity IPOHE ([5]; 30 g/Ha): 90
- Herbicidal activity IPOHE ([5]; 60 g/Ha): 90
- Herbicidal activity IPOHE ([5]; 125 g/Ha): 100
- Herbicidal activity IPOHE ([5]; 250 g/Ha): 100
- Herbicidal activity IPOHE ([5]; 500 g/Ha): 100
- Herbicidal activity KCHSC (Kochia scoparia (KSHSC); 15 g/Ha): 0
- Herbicidal activity KCHSC (Kochia scoparia (KSHSC); 30 g/Ha): 0
- Herbicidal activity KCHSC (Kochia scoparia (KSHSC); 60 g/Ha): 0
- Herbicidal activity KCHSC (Kochia scoparia (KSHSC); 125 g/Ha): 10
- Herbicidal activity KCHSC (Kochia scoparia (KSHSC); 250 g/Ha): 20
- Herbicidal activity KCHSC (Kochia scoparia (KSHSC); 500 g/Ha): 20
- Herbicidal activity ORYSA (Orysa sativa (ORYSA); 15 g/Ha): 0
- Herbicidal activity on a 0-100 scale, ORYSA (Orysa sativa (ORYSA); 15 g/Ha): 0
- Herbicidal activity ORYSA (Orysa sativa (ORYSA); 30 g/Ha): 0
- Herbicidal activity on a 0-100 scale, ORYSA (Orysa sativa (ORYSA); 30 g/Ha): 0
- Herbicidal activity ORYSA (Orysa sativa (ORYSA); 60 g/Ha): 0
- Herbicidal activity on a 0-100 scale, ORYSA (Orysa sativa (ORYSA); 60 g/Ha): 0
- Herbicidal activity ORYSA (Orysa sativa (ORYSA); 125 g/Ha): 10
- Herbicidal activity on a 0-100 scale, ORYSA (Orysa sativa (ORYSA); 125 g/Ha): 10
- Herbicidal activity ORYSA (Orysa sativa (ORYSA); 250 g/Ha): 20
- Herbicidal activity on a 0-100 scale, ORYSA (Orysa sativa (ORYSA); 250 g/Ha): 20
- Herbicidal activity ORYSA (Orysa sativa (ORYSA); 500 g/Ha): 40
- Herbicidal activity on a 0-100 scale, ORYSA (Orysa sativa (ORYSA); 500 g/Ha): 40
- Herbicidal activity SIDSP (Sida spinosa (SIDSP); 15 g/Ha): 40
- Herbicidal activity SIDSP (Sida spinosa (SIDSP); 30 g/Ha): 80
- Herbicidal activity SIDSP (Sida spinosa (SIDSP); 60 g/Ha): 80
- Herbicidal activity SIDSP (Sida spinosa (SIDSP); 125 g/Ha): 90
- Herbicidal activity SIDSP (Sida spinosa (SIDSP); 250 g/Ha): 90
- Herbicidal activity SIDSP (Sida spinosa (SIDSP); 500 g/Ha): 100
- Herbicidal activity VERPE (Veronica persica (VERPE); 15 g/Ha): 80
- Herbicidal activity VERPE (Veronica persica (VERPE); 30 g/Ha): 90
- Herbicidal activity VERPE (Veronica persica (VERPE); 60 g/Ha): 100
- Herbicidal activity VERPE (Veronica persica (VERPE); 125 g/Ha): 100
- Herbicidal activity VERPE (Veronica persica (VERPE); 250 g/Ha): 100
- Herbicidal activity VERPE (Veronica persica (VERPE); 500 g/Ha): 100
- Herbicidal activity XANST ([6]; 60 g/Ha): 90
- Herbicidal activity XANST ([6]; 250 g/Ha): 100
- Herbicidal activity XANST ([6]; 500 g/Ha): 100
